These results are taken from US4696920A, “Certain 2-substituted 1,3-propylidenediphosphonate derivatives, pharmaceutical compositions containing them and their use as antihypertensive agents” (priority 1984, dated 1987).

“Also recorded” adds a separate entry of the source.

For experiment [1], the system named is drug receptor sites associated with calcium channels. Particulars: known calcium antagonists; cited from earlier work.
For experiment [2], the system named is calcium channel binding site for [^3 H]-Nitrendipine (rat brain membranes). Put plainly: [^3 H]-Nitrendipine binding to rat brain membranes. Details: species or system rat (male Wistar). Particulars: for Specifically bound [^3 H]-Nitrendipine % of control value: compound concentration 1.0 μM; for Bound ^3 H at 1.0 μM / Bound ^3 H at 0.1 μM: ratio of [^3 H]-Nitrendipine bound at 1.0 and 0.1 μM compound. The method, then:
(§1) Diltiazem hydrochloride was a generous gift from Goedecke A. G.
Suitable dilutions were made in 50 mM Tris-HCl buffer (pH 7.4) containing 150 mM NaCl and 1 mM CaCl2. The ethanol concentration in the final assay never exceeded 0.1%.
(§2) The purity of the radioligand and of the various agents tested was monitored by thin layer chromatography on silica gel plates.
(§3) The following procedure was adapted from Bellemann et al (Proc. Nat. Acad. Sci. 80, 2356, 1983), and Gould et al (Proc. Nat. Acad. Sci. 79, 3656, 1982).
(§4) Adult male Wistar rats weighing 250-300 g were anesthetized with carbon dioxide prior to decapitation. The brain was removed then immersed in ice-cold 0.32M sucrose and washed 2-3 times with fresh solution. Cerebral cortex was minced and homogenized (Potter-Elvehjem homogenizer) in 10 volumes of ice-cold sucrose solution. The homogenate was centrifuged (4° C.) at 1000×g for 15 minutes. The resulting supernatant was then centrifuged at 90000×g (30 minutes) and the pellet was washed twice with 20 ml ice-cold 50 mM Tris-HCl pH 7.4.
(§5) The final pellet was resuspended in 50 mM Tris-HCl pH 7.4/150 mM NaCl/1 mM CaCl2 to give a protein concentration of 4 mg/ml.
(§6) The membrane suspension was kept on ice until used. Binding assays were performed in subdued light to prevent dihydropyridine breakdown. Membrane protein (400 μg/tube) was incubated in 50 mM Tris-HCl buffer (pH 7.4)/150 mM NaCl/1 mM CaCl2 with the indicated concentrations of radioligand and test compounds or known calcium antagonists, in a total volume of 2 ml. After the indicated time intervals, the reaction was terminated by rapid filtration through Whatman GF/B glass fiber filters (2.4 cm diameter) on a Millipore filter holder. The assay tube was rinsed with 2 ml ice-cold 50 mM Tris-HCl pH (7.4) and the precipitate was further washed with 2×5 ml of the same buffer.
(§7) Filters were dried under a heat lamp and were extracted with 10 ml of liquid scintillation cocktail (Toluene/Triton X-100, 2/1 containing 4 g Omnifluor/1) prior to tritium determination at 48% counting efficiency.
(§8) Assays were performed in duplicate or triplicate.
(§9) Data were expressed as percent specific [^3 H]-Nitrendipine binding relative to the established control value.
(§10) Compound activity in the [^3 H]-Nitrendipine binding assay was evaluated by using the following criteria:
(§11) 1. [^3 H]-Nitrendipine binding at 1.0 μM compound final concentration was either below 95% or above 105% of the control value determined in absence of compound.
2. […] This ratio is indicative of a dose response relationship within the compound concentration range tested, when the value differs appreciably from 1.0.

The test system of experiment [3] is [^3 H]-PN-200 110 (dihydropyridine) binding site of calcium channel, rat brain membranes. Briefly: [^3 H]-PN-200 110 binding to rat brain membranes. On the set-up: species or system rat (male Wistar). Particulars: for Specifically bound [^3 H]-PN-200 110 % of control value: compound concentration 1.0 μM; for Specifically bound [^3 H]-PN-200 110 % of control value / Bound ^3 H at 1.0 μM / Bound ^3 H at 0.1 μM: Table 1b; for Bound ^3 H at 1.0 μM / Bound ^3 H at 0.1 μM: ratio of [^3 H]-PN-200 110 bound at 1.0 and 0.1 μM compound; for potency in [^3 H]-PN200 110 binding (in words): text on Table 1b. The method, then:
as §1
Water insoluble compounds were dissolved in absolute ethanol to give 10 mM or 2.5 mM stock solutions. Suitable dilutions were made in 50 mM Tris-HCl buffer (pH 7.4) containing 150 mM NaCl and 1 mM CaCl2. The ethanol concentration in the final assay never exceeded 0.1%.
as §2, §3, §4, §5, §6, §7, §8, §9, §10, §11
2. The ratio obtained by dividing the amount of specifically found [^3 H]-Nitrendipine at 1.0 μM compound final concentration by the value obtained at 0.1 μM test compound, was smaller than 0.9 or greater than 1.1. This ratio is indicative of a dose response relationship within the compound concentration range tested, when the value differs appreciably from 1.0.
Note: In some experiments [^3 H]-PN200 110, a new and commercially available specific dihydropyridine was used instead of [^3 H]-Nitrendipine.

In experiment [4] the test system is rat trachea contraction induced by KCl depolarization. Put plainly: KCl-induced rat trachea contraction. Details: species or system rat (male SHR, Okamoto-Aoki). Particulars: for activity at 1 µM: Rattus norvegicus, 40 min, read-out: Contraction (% max.). On the procedure:
Spontaneously hypertensive male rats (SHR) Okamoto-Aoki Strain, weighing 300-400 g were used in this study. They were killed by bleeding after Pentobarbital anesthesia (Nembutal, Abbott Co, 40 mg/kg). Their entire trachea was quickly removed and dissected free of fat and connective tissue in Krebs-Ringer solution. A strip (4 mm×40 mm), obtained by spirally cutting the trachea, was immediately suspended in a 50 ml Krebs-Ringer solution and continuously bubbled with a O2 /CO2 (95/5) mixture. Bath temperature was maintained at 37±1° C. The composition (mM) of the Krebs-Ringer solution modified by Nghiem, was as follows: NaCl, (118.0); KCl, (4.7); CaCl2, (2.5); MgCl2, (1.18); NaHCO3, (12.5); KH2 P04, (1.18); glucose, (5.5) in bidistilled water (pH 7.4). Each strip was equilibrated under initial tension (1.5-2 g) for 1-2 hours and the bath solution changed every 30 min. A contractile or relaxant response was isometrically measured with a force-displacement transducer (Ugo-Basile) and recorded on a polygraph (Beckman).
After equilibration, KCl was added to the bath at 65 mM final concentration. This concentration produced maximum trachea contraction. Under these conditions, a plateau phase showing a tonic sustained contraction was reached within 30 minutes. Drugs were added 30 minutes after the plateau phase has been reached (final concentration=1.0 μM). […] Recordings of the residual trachea contraction were made 40 minutes after drug addition to the bathing fluid. The initial KCl induced contraction was taken as the maximum KCl response (100%). Results were expressed as % of maximal contraction. Nifedipine, Prenylamine, Flunarizine and Diltiazem were used as reference standards to validate this assay.
All 1,3-diphosphonates and drugs were dissolved in saline (0.9% NaCl) except when water insoluble, then the compounds were dissolved in 2% ethanol. The final concentration of ethanol used has been shown not to interfere with the assay.
Results are expressed as mean values±SEM, the Student's t-test was used for statistical analysis.

Experiment [5] concerns blood pressure in hypertensive rats. Put plainly: Oral hypotensive activity in hypertensive rats (tail cuff). Particulars: Table 5. The format is in vivo, rat (spontaneously hypertensive, SHR). On the procedure: Some selected compounds were given orally to conscious SHR rats and blood pressure was monitored using the tail cuff method. A marked and sustained hypotensive activity was measured in all treated rats. Results are given 2 hours post dose (Table 5). These studies illustrate the obvious potential use of orally administered 1,3-diphosphonates for the clinical treatment of hypertension in man.

The subject of experiment [6] is mean blood pressure in rat. Put plainly: Acute intravenous hypotensive activity in anesthetized rats. It counts as in vivo, rat (male Wistar). On the procedure:
Male Wistar rats were anesthetized with Pentobarbital (Nembutal, 60 mg/kg i.p.) and heparinized (5 mg/kg i.p.). After tracheotomy the right carotid was cannulated (catheter PE 50); blood pressure was measured with a pressure transducer (Statham P 23 db) and recorded on a polygraph (Beckman).
Animals received 0.5 and 1.5 mg/kg of the test compounds. Less than 100 μl of test compounds dissolved in 0.9% saline were injected in the jugular vein. Highly water insoluble compounds were suspended in 2% Tween-80. Injection of the vehicle alone had no detectable hypotensive effect.
Results presented are expressed as percent decrease in initial mean blood pressure (Mean±SEM).

For the compound `C(=C\c1ccccc1)/CN1CCN(C(c2ccccc2)c2ccccc2)CC1` [Cinnarizine], the “effect on [^3 H]-Nitrendipine binding (in words)” value (“effect” below) in experiment [1] is “reduce [^3 H]-Nitrendipine binding affinity”.

As to `CCCCOP(=O)(CC(CCOc1ccccc1)CP(=O)(OCCCC)OCCCC)OCCCC` [Compound 79, Tetrabutyl 2-(2-phenoxyethyl)-1,3-propylidenediphosphonate], in experiment [2] (Table 1a), the “modulation of [^3 H]-Nitrendipine binding (in words)” value is recorded as “strong inhibitors”, the “Specifically bound [^3 H]-Nitrendipine % of control value” is on record as 0 % of control value and the “Bound ^3 H at 1.0 μM / Bound ^3 H at 0.1 μM” value is 0.000. In experiment [3], the “Specifically bound [^3 H]-PN-200 110 % of control value” (from here on “Specifically bound [^3 H]-PN-200 110 %”) is given as 3 % of control value and the “Bound ^3 H at 1.0 μM / Bound ^3 H at 0.1 μM” value came out at 0.211. Moreover, the activity at 1 µM in experiment [4] was 60.3 ± 9.6%. The “activity on KCl-induced trachea contraction (in words)” value in experiment [4] (final concentration 1.0 μM) is recorded as “potent pharmacological activity”. For the same compound, the “oral hypotensive activity (in words)” value in experiment [5] is given as “decrease blood pressure as markedly as the marketed calcium antagonists used as references”.

As to `CCCCOP(=O)(CC(Cc1cc(OC)c(OC)c(OC)c1)CP(=O)(OCCCC)OCCCC)OCCCC` [Compound 82], in experiment [2] (Table 1a), the “Specifically bound [^3 H]-Nitrendipine % of control value” is on record as 90 % of control value and the “Bound ^3 H at 1.0 μM / Bound ^3 H at 0.1 μM” value worked out at 0.886. In experiment [4], the activity at 1 µM came out at 80 ± 4%. Moreover, the inhibition in vivo at 0.5 mg/kg in experiment [6] (Rattus norvegicus, iv, read-out: Decrease in mean blood pressure (% pretest)) stood at 40.1 ± 3.2%. In addition, the “hypotensive activity (in words)” value in experiment [6] (acute i.v., Table 4) was “hypotensive activity superior to that of classical hypotensive drugs and of the calcium antagonists used as references”.

With `CCCCOP(=O)(CC(CCOc1ccc(F)cc1)CP(=O)(OCCCC)OCCCC)OCCCC` [Compound 89], in experiment [3], the “Specifically bound [^3 H]-PN-200 110 %” value is reported as 6 % of control value, the “Bound ^3 H at 1.0 μM / Bound ^3 H at 0.1 μM” value came out at 0.310 and the “potency in [^3 H]-PN200 110 binding (in words)” value (“potency” for short) is reported as “as potent as Nifedipine”. In experiment [5], the “oral hypotensive activity (in words)” value is given as “decrease blood pressure as markedly as the marketed calcium antagonists used as references”.

Consider `CCCCOP(=O)(CC(CCOc1ccc(Cl)cc1)CP(=O)(OCCCC)OCCCC)OCCCC` [Compound 90], for which, in experiment [3], the “Specifically bound [^3 H]-PN-200 110 %” value is 4 % of control value, the “Bound ^3 H at 1.0 μM / Bound ^3 H at 0.1 μM” value is reported as 0.243 and the “potency” value is recorded as “as potent as Nifedipine”. In experiment [5], the “oral hypotensive activity (in words)” value was “decrease blood pressure as markedly as the marketed calcium antagonists used as references”.

As for `CCCCOP(=O)(CC(CCOc1ccc(Br)cc1)CP(=O)(OCCCC)OCCCC)OCCCC` [Compound 91], in experiment [3], the “Specifically bound [^3 H]-PN-200 110 %” value was 15 % of control value and the “Bound ^3 H at 1.0 μM / Bound ^3 H at 0.1 μM” value turned out to be 0.420. In experiment [5], the “oral hypotensive activity (in words)” value is on record as “decrease blood pressure as markedly as the marketed calcium antagonists used as references”.

As to `CCCCOP(=O)(CC(CCOc1ccc(OC)cc1)CP(=O)(OCCCC)OCCCC)OCCCC` [Compound 92], in experiment [3], the “Specifically bound [^3 H]-PN-200 110 %” value is on record as 0 % of control value, the “Bound ^3 H at 1.0 μM / Bound ^3 H at 0.1 μM” value came to 0.000 and the “potency” value is recorded as “as potent as Nifedipine”. Besides, the “oral hypotensive activity (in words)” value in experiment [5] is given as “decrease blood pressure as markedly as the marketed calcium antagonists used as references”.

As for `CCCCOP(=O)(CC(CCOc1cccc(C(F)(F)F)c1)CP(=O)(OCCCC)OCCCC)OCCCC` [Compound 93], in experiment [3], the “Specifically bound [^3 H]-PN-200 110 %” value is given as 0 % of control value, the “Bound ^3 H at 1.0 μM / Bound ^3 H at 0.1 μM” value is listed as 0.000 and the “potency” value is “as potent as Nifedipine”. For the same compound, the “oral hypotensive activity (in words)” value in experiment [5] was “decrease blood pressure as markedly as the marketed calcium antagonists used as references”.

For `COc1ccc(CCN(C)CCCC(C#N)(c2cc(OC)c(OC)c(OC)c2)C(C)C)cc1OC` [Compound D-600], the “effect” value in experiment [1] is “reduce [^3 H]-Nitrendipine binding affinity”.

In the case of `Fc1ccc(C(c2ccc(F)cc2)N2CCN(C/C=C/c3ccccc3)CC2)cc1` [Flunarizine], the “effect” value in experiment [1] was “reduce [^3 H]-Nitrendipine binding affinity”.

On to `Cc1cccc(C)c1NC(=O)CN1CCN(CCCC(c2ccc(F)cc2)c2ccc(F)cc2)CC1` [Lidoflazine], for which the “effect” value in experiment [1] is “reduce [^3 H]-Nitrendipine binding affinity”.

`CC(Cc1ccccc1)NCCC(c1ccccc1)c1ccccc1` (stereo not shown) [Prenylamine, reference compound]: the “% [^3 H]-Nitrendipine bound” value in experiment [2] (reference standards at 1 μM) came out at 57%. Moreover, the “effect” value in experiment [1] was “reduce [^3 H]-Nitrendipine binding affinity”.

For the compound `COc1ccc(CCN(C)CCCC2(c3ccc(OC)c(OC)c3)S(=O)(=O)CCCS2(=O)=O)cc1OC` [Tiapamil], the “effect” value in experiment [1] is “reduce [^3 H]-Nitrendipine binding affinity”.

`COc1ccc(CCN(C)CCCC(C#N)(c2ccc(OC)c(OC)c2)C(C)C)cc1OC` (stereo not shown) [Verapamil]: the “effect” value in experiment [1] was “inhibitors; also recorded: reduce [^3 H]-Nitrendipine binding affinity”.
